Test results reported in patent publication US7799813B2, “Salts of substituted 5-membered azacycle and use thereof in the treatment of diseases related to protein aging” (Beijing Molecule Science and Technology Co., Ltd., priority 2006, dated 2010).
One block for each compound: values may come before it.

Legend:
[1] = system: AGE-BSA-collagen cross-links; experiment: Elisa screening experiment on the breaking of AGE-BSA collagen cross-links; format: biochemical, rat; conditions: 37° C., 16 hours, OD 450 nm, averages of more than three screening results
Description: AGE cross-links were prepared in vitro by cross-linking AGE-BSA to rat tail tendon collagen-coated 96 well microtiter plates. ELISA method was used to evaluate the breaking effect of the compounds on AGE cross-links.
Normal Wister rats (body weight 200±20 g) were sacrificed acutely, then the tails were excised, and tail collagen was prepared at a temperature of 4° C. as follows: tail tendon collagen fibrils were taken out, washed with physiological saline, peeled off non-collagen fibril tissue, rinsed with distilled deionized water 3 times, cut into pieces, and immersed in 0.1% acetic acid at 4° C. for one week during which the immersion liquid was shaken frequently. Finally, the immersion liquid was subjected to a centrifuge treatment at 8000 G for 30 minutes, and supernatant collagen solution was collected. After dilution, protein content was measured. 96 well microtiter plates (Costar) were full-well coated with the collagen solution in an amount of 70 μg/well at 4° C. for 24 hours, then the coating solution was discarded. The plates were dried in air under sterile condition, coated with a fresh-keeping film, and finally stored at 4° C. for use.
A solution containing 50 mg/ml of bovine serum albumin BAS (V) (Roch) and 0.5M of glucose in 0.2M PBS (pH 7.4) was incubated at 37° C. under sterile condition for 3-4 months, to thereby form glycosylated BSA, i.e. BSA-AGE. At the same time, non-glycosylated BSA was prepared with glucose-free BSA. Then the BSA-AGE solution was dialyzed against 0.01M PBS (pH 7.4) to be removed of unreacted glucose. Fluorescence scanning (Exi/Em (395/460 nm)) and SDS-PAGE were used to check the formation of BSA-AGE, and protein concentration was determined by the Lowery method.
The tail collagen-coated 96 well microtiter plates were full-well treated with PBS (pH 7.4) for 1 hour to neutralize the acidic collagen. Then the plates were blocked with Superblock (PIERCE) at 37° C. for 1 hour, and washed with PBST (PBS-Tween) three times while shaking for 1 minute for each time of washing. AGE-BSA was diluted in PBS to a concentration required to obtain maximum cross-linking. 100 μl of the AGE-BSA solution was added to wells in the rows labeled as A, B, C, and D of the 96 well plates, and BSA solution of the same concentration was added to wells in the rows labeled as E, F, G, and H. The first three wells in each row were filled with PBS for the reagent blank. The plates were incubated at 37° C. for 4 hours to allow the collagen crosslink, and washed with PBST four times while shaking for 1 minute for each time of washing. Test compounds were diluted in PBS of pH 7.4. A test compound was added to quadruplicate AGE-BSA cross-links wells and quadruplicate BSA wells in an amount of 100 μl/well. PBS was added in an amount of 100 μl/well in the same way as non-breaking contrast. The plates were incubated at 37° C. for 16 hours and washed four times with PBST while shaking for 1 minute for each time of washing. 80 μl/well of Rabbit-anti-BSA antibody (1:500) was added to the wells and the plates were incubated at 37° C. for 50 minutes. After the plates were washed with PBST four times while shaking for 1 minute for each time of washing, 80 μl/well of horseradish peroxidase-labelled-goat-anti-rabbit IgG (1:1000) was added to the wells. The plates were incubated at 37° C. for 50 minutes, and then washed with PBST three times while shaking for 1 minute for each time of washing. 100 μl/well of TMB substrate (3,3′,5,5′-tetramethylbenzidine) was added to the wells. The plates were incubated at room temperature at dark place for 20 minutes. 2M H2SO4 was used to terminate the reaction. Within 10 minutes after the reaction, optical density was read at 450 nm on the BOBRAD Model 550 plate reader with the blank wells of the plates was set to 0.
The average optical density (OD) was calculated for each quadruplicate determination. […]

SMILES: Cc1sc[n+](CC(=O)OCc2ccccc2)c1C.[Br-] [Compound 1, 3-benzyloxycarbonylmethyl-4,5-dimethyl-thiazole-3-bromide]
Breaking rate (decrease % in OD) ([1]; test compound 0.1 mmol/L): 9.65 ± 3.55% | Breaking rate (decrease % in OD) ([1]; test compound 1 mmol/L): 10.81 ± 3.86%

SMILES: Cc1csc[n+]1CC(=O)OCc1ccccc1.[Br-] [Compound 3, 3-benzyloxycarbonylmethyl-4-methyl-thiazole-3-bromide]
Breaking rate (decrease % in OD) ([1]; test compound 0.1 mmol/L): 16.16 ± 7.07% | Breaking rate (decrease % in OD) ([1]; test compound 1 mmol/L): 26.46 ± 18.2% | melting point: 217 to 218 °C

SMILES: Cc1c(CCO)sc[n+]1CC(=O)OCc1ccccc1.[Br-] [Compound 2, 3-benzyloxycarbonylmethyl-5-(2-hydroxyethyl)-4-methyl-thiazole-3-bromide]
Breaking rate (decrease % in OD) ([1]; test compound 0.1 mmol/L): 13.5 ± 9.53% | Breaking rate (decrease % in OD) ([1]; test compound 1 mmol/L): 13.25 ± 10.29%

SMILES: Cc1sc[n+](CC(=O)c2ccccc2)c1C.[Cl-] [ALT-711, reference compound]
Breaking rate (decrease % in OD) ([1]; test compound 0.1 mmol/L): 13.4 ± 6.41% | Breaking rate (decrease % in OD) ([1]; test compound 1 mmol/L): 15.2 ± 8.43%

Continued, in another order:

melting point: 160 to 166 °C
SMILES: O=C(C[n+]1csc2c1CCCC2)OCc1ccccc1.[Br-] [Compound 4, 3-benzyloxycarbonylmethyl-4,5,6,7-tetrahydro-benzothiazole-3-bromide]
Breaking rate (decrease % in OD) ([1]; test compound 0.1 mmol/L): 8.45 ± 5.35% | Breaking rate (decrease % in OD) ([1]; test compound 1 mmol/L): 7.17 ± 2.40%

melting point: 223 to 230 °C
SMILES: Cc1csc[n+]1CC(=O)O.[Br-] [Compound 5, 3-carboxymethyl-4-methyl-thiazole-3-bromide]
